Broadly, the IC50 is the concentration that inhibits the measured activity by half.

Biological target in the first assay: not listed separately
Briefly: Inhibition of alpha-glucosidase (unknown origin) using sucrose as substrate assessed as formation of glucose after 30 mins by glucose oxidase method. The arrangement: species or system Homo sapiens.
Take `COC(=O)C(C)CC(=O)C[C@@H](C)[C@H]1CC(=O)[C@@]2(C)C3=C([C@@H](O)C[C@]12C)[C@@]1(C)CCC(=O)C(C)(C)[C@@H]1C[C@@H]3O` (stereo partly drawn): the IC50 is over 600 µM. For the compound `C[C@H]1O[C@H](O[C@H]2[C@H](O)[C@@H](O)[C@@H](O[C@H]3[C@H](O)[C@@H](O)C(O)O[C@@H]3CO)O[C@@H]2CO)[C@H](O)[C@@H](O)[C@@H]1N[C@H]1C=C(CO)[C@@H](O)[C@H](O)[C@H]1O` (stereo partly drawn) [ACARBOSE], the concentration for half-maximal inhibition (IC50) was 522 µM. For the compound `C/C(=C\C(=O)CC(C)C(=O)O)[C@H]1C[C@H](O)[C@@]2(C)C3=C(C(=O)C[C@]12C)[C@@]1(C)CCC(=O)C(C)(C)[C@@H]1C[C@@H]3O` (stereo partly drawn) [GANODERENIC ACID A], the IC50 is 445 µM. As to `C[C@H](CC(=O)C[C@@H](C)[C@H]1C[C@H](O)[C@@]2(C)C3=C(C(=O)C[C@]12C)[C@@]1(C)CCC(=O)C(C)(C)[C@@H]1C[C@@H]3O)C(=O)O` [GANODERIC ACID A], the IC50 came to 528 µM.

With `CC(CC(=O)C[C@@H](C)[C@H]1CC(=O)[C@@]2(C)C3=C(C(=O)C[C@]12C)[C@@]1(C)CC[C@H](O)C(C)(C)[C@@H]1C[C@@H]3O)C(=O)O` (stereo partly drawn) [GANODERIC ACID B], the IC50 was 464 µM. As for `C[C@H](CC(=O)C[C@@H](C)[C@H]1CC(=O)[C@@]2(C)C3=C(C(=O)C[C@]12C)[C@@]1(C)CCC(=O)C(C)(C)[C@@H]1C[C@@H]3O)C(=O)O` [GANODERIC ACID C1], the IC50 was over 600 µM. As to `C[C@H](CC(=O)C[C@@H](C)[C@H]1C[C@H](O)[C@@]2(C)C3=C(C(=O)C[C@]12C)[C@@]1(C)CC[C@H](O)C(C)(C)[C@@H]1C[C@@H]3O)C(=O)O` [GANODERIC ACID C2], the IC50 is over 600 µM. On the same count and under the same terms, the same measure for `CC(CC(=O)C[C@@H](C)[C@H]1CC(=O)[C@@]2(C)C3=C(C(=O)[C@@H](O)[C@]12C)[C@@]1(C)CC[C@H](O)C(C)(C)[C@@H]1CC3=O)C(=O)O` (stereo partly drawn) [GANODERIC ACID C6]: over 600 µM; for `CC(CC(=O)C[C@@H](C)[C@H]1CC(=O)[C@@]2(C)C3=C([C@@H](O)C[C@]12C)[C@@]1(C)CCC(=O)C(C)(C)[C@@H]1C[C@@H]3O)C(=O)O` (stereo partly drawn) [GANODERIC ACID DF]: 219 µM; for `CC(CC(=O)C[C@@H](C)[C@H]1CC(=O)[C@@]2(C)C3=C(C(=O)C[C@]12C)[C@@]1(C)CCC(=O)C(C)(C)[C@@H]1C[C@@H]3O)C(=O)O` (stereo partly drawn) [GANODERIC ACID D]: over 600 µM. Consider `CC(CC(=O)C[C@@H](C)[C@H]1CC(=O)[C@@]2(C)C3=C(C(=O)[C@@H](O)[C@]12C)[C@@]1(C)CC[C@H](O)C(C)(C)[C@@H]1C[C@@H]3O)C(=O)O` (stereo partly drawn) [GANODERIC ACID G], for which the IC50 was over 600 µM. Take `CC(=O)O[C@@H]1C(=O)C2=C(C(=O)C[C@H]3C(C)(C)[C@@H](O)CC[C@]23C)[C@]2(C)C(=O)C[C@H]([C@H](C)CC(=O)CC(C)C(=O)O)[C@@]12C` (stereo partly drawn) [GANODERIC ACID H]: the IC50 was over 600 µM. Consider `CC(CC(=O)C[C@@H](C)[C@H]1C[C@H](O)[C@@]2(C)C3=C(C(=O)C[C@]12C)[C@@]1(C)CCC(=O)C(C)(C)[C@@H]1CC3=O)C(=O)O` (stereo partly drawn) [GANODERIC ACID J], for which the IC50 was over 600 µM.

With `CC(=O)O[C@@H]1C(=O)C2=C([C@@H](O)C[C@H]3C(C)(C)[C@@H](O)CC[C@]23C)[C@]2(C)C(=O)C[C@H]([C@H](C)CC(=O)CC(C)C(=O)O)[C@@]12C` (stereo partly drawn) [GANODERIC ACID K], the IC50 is over 600 µM. Take `C[C@H](CCC=C(CO)CO)[C@H]1CC[C@@]2(C)C3=CC[C@H]4C(C)(C)C(=O)CC[C@]4(C)C3=CC[C@]12C` [GANODERIOL F]: the IC50 was determined as 208 µM. On the same count and under the same terms, the result for `C[C@H](CC[C@H](O)[C@](C)(O)CO)[C@H]1CC[C@@]2(C)C3=CC[C@H]4C(C)(C)C(=O)CC[C@]4(C)C3=CC[C@]12C` [GANODERMANONTRIOL] reads 540 µM; that for `C/C(=C\CC[C@@H](C)[C@H]1CC[C@@]2(C)C3=CC[C@H]4C(C)(C)[C@@H](O)CC[C@]4(C)C3=CC[C@]12C)CO` [GANODEROL B], 110 µM; that for `CC(CC(=O)C[C@@H](C)[C@H]1C[C@H](O)[C@@]2(C)C3=C(C(=O)C[C@]12C)[C@@]1(C)CC[C@H](O)C(C)(C)[C@@H]1CC3)C(=O)O` (stereo partly drawn) [GANOLUCIDIC ACID B], over 600 µM. On the same count and under the same terms, the result for `COC(=O)C(C)CC(=O)C[C@@H](C)[C@H]1C[C@H](O)[C@@]2(C)C3=C(C(=O)C[C@]12C)[C@@]1(C)CCC(=O)C(C)(C)[C@@H]1C[C@@H]3O` (stereo partly drawn) [METHYL GANODERATE A] reads over 600 µM; that for `COC(=O)C(C)CC(=O)/C=C(\C)[C@H]1C[C@H](O)[C@@]2(C)C3=C(C(=O)C[C@]12C)[C@@]1(C)CCC(=O)C(C)(C)[C@@H]1C[C@@H]3O` (stereo partly drawn) [METHYL GANODERENATE A], over 600 µM.

For another assay, the species on record is Homo sapiens. The experiment in a line: Ratio of acarbose IC50 to compound IC50 for alpha-glucosidase (unknown origin).
As for `CC(CC(=O)C[C@@H](C)[C@H]1CC(=O)[C@@]2(C)C3=C([C@@H](O)C[C@]12C)[C@@]1(C)CCC(=O)C(C)(C)[C@@H]1C[C@@H]3O)C(=O)O` (stereo partly drawn) [GANODERIC ACID DF], the Ratio IC50 amounted to 2.5.

Turning to `C[C@H](CCC=C(CO)CO)[C@H]1CC[C@@]2(C)C3=CC[C@H]4C(C)(C)C(=O)CC[C@]4(C)C3=CC[C@]12C` [GANODERIOL F], the Ratio IC50 was determined as 3. On the same count and under the same terms, the result for `C/C(=C\CC[C@@H](C)[C@H]1CC[C@@]2(C)C3=CC[C@H]4C(C)(C)[C@@H](O)CC[C@]4(C)C3=CC[C@]12C)CO` [GANODEROL B] reads 5.

Values taken from ChEMBL document CHEMBL2440051, “Structure-activity relationships of lanostane-type triterpenoids from Ganoderma lingzhi as α-glucosidase inhibitors” (Bioorg Med Chem Lett, 2013).
